According to patent US20260207605A1, “KRAS G12D INHIBITORS AND USES THEREOF” (Abbisko Therapeutics Co., Ltd., priority 2022, published 2026):
Like-named read-outs stand apart in the source and are kept apart here.

How the values were obtained:
KRAS^G12D/cRAF = KRAS^G12D/cRAF (Homo sapiens, UniProt P01116, G12D); test: KRAS G12D/cRAF binding test (Alphalisa); details: His-tagged KRAS G12D with GMPPNP, GST-tagged cRAF
Experimental: The compound was dissolved in 100% DMSO at a starting concentration of 5 mM and diluted in DMSO with a 3-fold serial dilution method for a total of 8 concentration points. 1 μL of the compound or DMSO at each concentration point was added into 99 μL of the experimental buffer to obtain 10× stock solution.
(§1) The ratio for each compound concentration was calculated from the signal of the DMSO control group contained in each assay plate and the Alphalisa signal in each compound well. The compound concentration required for inhibitory concentration at 50% (IC50) was determined using a four-parameter logarithmic dose-response equation by testing the concentration of the compound and the value of the ratio. The endpoint value (IC50) of the reference compound was assessed in each experiment as a quality control measure. If the endpoint value is within three times the expected value, the experiment may be considered acceptable.

HPAC = test: Anti-proliferative 2D CTG assay, HPAC; type: cell-based; details: Homo sapiens, 96 h, HPAC cells, 4 days incubation, read-out: HPAC cell IC50
Experimental: (§2) 1.1 Day 0 Cell Culture and Plating
(§3) Cells in a logarithmic growth phase were harvested and the cells were counted by using a […]. Cell viability was tested by using a trypan blue exclusion method to ensure that cell viability was above 90%. The cell concentration was adjusted to the desired final density, and 90 μL of cell suspension was added to a 96-well plate, then the cells were incubated overnight at 37° C., 5% CO2 and 95% humidity.
(§4) 10 μL PBS was added to each well of the TO plate containing cells. The CTG reagent was thawed and the plate was equilibrated to room temperature for 30 minutes. The CTG solution of 50 µL/well was added to each well. The cells were lysed by shaking on an orbital shaker for 5 minutes. The plate was left at room temperature for 20 minutes to stabilize the luminescence signal. The TO fluorescence signal value was read.
(§5) From the 10 mM stock solution, with a ratio of 1:5, 9-point serial dilutions were performed. The 10× medium containing the compound was transferred into corresponding wells of the 96 wells. The final maximum compound concentration was […] and the final DMSO concentration was 0.1%. The 96-well plate was placed in a 37° C. incubator and incubated for 4 days.
(§6) 50 μL/well of detection reagent (CTG) was added to the cells, and the signal was read in an Envision machine.
as §1, with “The percent inhibition (%) at” for “The ratio for”, “signal in” for “signal of”, “the HPE and ZPE” for “the DMSO”, “control wells and the fluorescence signal in the individual compound wells included” for “control group contained”, “assay plate. […]” for “assay plate and the Alphalisa signal in each compound well.”, “the inhibition percentage value.” for “the value of the ratio.”

LS513 = test: Anti-proliferative 2D CTG assay, LS513; type: cell-based; details: Homo sapiens, LS-513, 96 h, LS513 cells, 4 days incubation, read-out: LS513 cell IC50
Experimental: as §2, §3, §4, §5, §6
as §1, with “The percent inhibition (%) at” for “The ratio for”, “signal in” for “signal of”, “the HPE and ZPE” for “the DMSO”, “control wells and the fluorescence signal in the individual compound wells included” for “control group contained”, “assay plate. […]” for “assay plate and the Alphalisa signal in each compound well.”, “the inhibition percentage value.” for “the value of the ratio.”

AsPC-1 = test: Anti-proliferative 2D CTG assay, AsPC-1; type: cell-based; details: AsPC-1 cells, 4 days incubation, read-out: AsPC-1 cell IC50
Experimental: as §2, §3, §4, §5, §6
as §1, with “The percent inhibition (%) at” for “The ratio for”, “signal in” for “signal of”, “the HPE and ZPE” for “the DMSO”, “control wells and the fluorescence signal in the individual compound wells included” for “control group contained”, “assay plate. […]” for “assay plate and the Alphalisa signal in each compound well.”, “the inhibition percentage value.” for “the value of the ratio.”

AGS = test: Anti-proliferative 2D CTG assay, AGS; type: cell-based; details: AGS cells, 4 days incubation, read-out: AGS cell IC50
Experimental: as §2, §3, §4, §5, §6
as §1, with “The percent inhibition (%) at” for “The ratio for”, “signal in” for “signal of”, “the HPE and ZPE” for “the DMSO”, “control wells and the fluorescence signal in the individual compound wells included” for “control group contained”, “assay plate. […]” for “assay plate and the Alphalisa signal in each compound well.”, “the inhibition percentage value.” for “the value of the ratio.”

[1] = Pharmacokinetic experiment in mice (single PO or IV administration); details: male, ICR, mouse, plasma
Description: The purpose of this trial is to study the pharmacokinetic behavior of some compounds of the present invention, and the administration method is: single oral administration (PO) or intravenous administration (IV) to ICR mice.
ICR mice male N=9 original source: Shanghai Sippr-Bk Lab Animal Co., Ltd.
The compounds were weighed and dissolved in the corresponding solution (0.5% CMC+1% tween water solution or 10% PG+10% Solutol®+80% pH3 citrate buffer). The mixture was then shaken well and sonicated to prepare a 1 mg/mL stock solution. Nine mice were orally administered at a dose of 10 mg/kg or intravenously administered at a dose of 2 mg/kg after an overnight fast.
About 90 μL of blood was collected via the submandibular vein per time point, heparin sodium anticoagulant was added, the sample was placed on ice after collection, and plasma was centrifuged within 1 hour (centrifugation conditions: 8,000 rpm, 6 minutes, 2-8° C.). The blood collection timepoints were 0, 0.25, 0.5, 1, 2, 4, 6, 8 and 24 h. The samples were stored in a −20° C. refrigerator.
The plasma sample was 40 μL, 160 μL of ice-cold acetonitrile containing internal standard was added, vortexed for 3 minutes, and centrifuged at 11,000 rpm for 5 minutes. 100 μL of the supernatant was taken and added to 100 μL of water, 5 μL of the sample was taken and injected into LC/MS/MS for analysis.

Sequence of KRAS^G12D/cRAF (P01116 1-188 isoform P01116-2 G12D): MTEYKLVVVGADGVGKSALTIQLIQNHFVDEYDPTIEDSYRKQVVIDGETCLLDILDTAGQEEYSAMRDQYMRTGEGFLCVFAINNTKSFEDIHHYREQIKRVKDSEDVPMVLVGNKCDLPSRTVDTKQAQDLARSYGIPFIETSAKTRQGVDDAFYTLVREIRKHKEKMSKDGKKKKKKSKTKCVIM

| SMILES | IC50 (KRAS^G12D/cRAF) [nM] | IC50 (HPAC) [nM] | IC50 (LS513) [nM] | IC50 (AsPC-1) [nM] | IC50 (AGS) [nM] | AUC ([1]; iv, 2 mg/kg) [ng·h/mL] | Cmax ([1]; iv, 2 mg/kg) [ng/mL] | half-life ([1]; iv, 2 mg/kg) [h] | AUC ([1]; po, 10 mg/kg) [ng·h/mL] | Cmax ([1]; po, 10 mg/kg) [ng/mL] | bioavailability ([1]; po, 10 mg/kg) [%] | half-life ([1]; po, 10 mg/kg) [h] | IC50 (AGS; Homo sapiens, AGS, 96 h) [nM] | IC50 (AsPC-1; Homo sapiens, ASPC1, 96 h) [nM] |
| --- | --- | --- | --- | --- | --- | --- | --- | --- | --- | --- | --- | --- | --- | --- |
| [2H]C([2H])([2H])OC[C@@]12CC[C@@H](CN(c3nc(OC[C@@]45CCCN4C/C(=C\F)C5)nc4c(F)c(-c5cc(O)cc6ccc(F)c(C#C)c56)ncc34)C1)N2 [Example 62, 5-ethynyl-6-fluoro-4-(8-fluoro-2-(((S,Z)-2-(fluoromethylene)tetrahydro-1H-pyrrolizin-7a(5H)-yl)methoxy)-4-((1R,5S)-1-((methoxy-d3)methyl)-3,8-diazabicyclo[3.2.1]octan-3-yl)pyrido[4,3-d]pyrimidin-7-yl) naphthalen-2-ol] | 5.1 | 9.7 | 4.9 | 19.8 | 1.5 | 849 | 764 | 4.9 | 619 | 224 | 14.6 | 5.7 |  |  |
| C#Cc1c(F)ccc2cc(O)cc(-c3ncc4c(N5C[C@@H]6CC[C@](C7CCCC7)(C5)N6)nc(OC[C@@]56CCCN5C/C(=C\F)C6)nc4c3F)c12 [Example 75, 4-(4-((1S,5S)-1-cyclopentyl-3,8-diazabicyclo[3.2.1]octan-3-yl)-8-fluoro-2-(((S,Z)-2-(fluoromethylene)tetrahydro-1H-pyrrolizin-7a (5H)-yl)methoxy)pyrido[4,3-d]pyrimidin-7-yl)-5-ethynyl-6-fluoronaphthalen-2-ol] | 34.5 | 93.6 | 56.1 |  |  |  |  |  |  |  |  |  | 14.2 |  |
| [2H]C([2H])([2H])C([2H])([2H])[C@@]12CC[C@@H](CN(c3nc(OC[C@@]45CCCN4CC(=C)C5)nc4c(F)c(-c5cc(N)cc6ccc(F)c(C#C)c56)ncc34)C1)N2 [Example 357, 4-(4-((1R,5S)-1-(ethyl-d5)-3,8-diazabicyclo[3.2.1]octan-3-yl)-8-fluoro-2-(((S)-2-methylenetetrahydro-1H-pyrrolizin-7a(5H)-yl)methoxy)pyrido[4,3-d]pyrimidin-7-yl)-5-ethynyl-6-fluoronaphthalen-2-amine] |  | 46.9 | 57.4 |  |  |  |  |  |  |  |  |  | 23 |  |
| C#Cc1c(F)ccc2cc(O)cc(-c3ncc4c(N5CC6CCC(C5)N6)nc(OC[C@@]56CCCN5C[C@H](F)C6)nc4c3F)c12 [Positive Compound 1, reference compound] |  | 10.3 | 18.1 |  |  | 367 | 1130 |  | 40.2 | 20.6 | 2.2 |  | 4.2 | 34.9 |
| [2H]C([2H])([2H])C([2H])([2H])[C@@]12CC[C@@H](CN(c3nc(OC[C@@]45CCCN4C/C(=C\F)C5)nc4c(F)c(-c5cc(O)cc6ccc(F)c(C#C)c56)ncc34)C1)N2 [Example 71, 4-(4-((1R,5S)-1-(ethyl-d5)-3,8-diazabicyclo[3.2.1]octan-3-yl)-8-fluoro-2-(((S,Z)-2-(fluoromethylene)tetrahydro-1H-pyrrolizin-7a(5H)-yl)methoxy)pyrido[4,3-d]pyrimidin-7-yl)-5-ethynyl-6-fluoronaphthalen-2-ol] | 5.6 | 2.3 | 4.1 |  |  | 497 | 638 | 6.6 | 1020 | 461 | 41.1 | 4.9 | 1.4 | 16.7 |
| [2H]C([2H])([2H])C([2H])([2H])[C@@]12CC[C@@H](CN(c3nc(OC[C@@]45CCCN4C/C(=C\F)C5)nc4c(F)c(-c5ccc(F)c6sc(N)c(C#N)c56)c(Cl)cc34)C1)N2 (single isomer, unassigned) [Example 361] | 7.1 | 38 | 40 |  |  | 221 | 179 | 13.7 | 370 | 164 | 33.5 | 9.6 |  |  |
| C#Cc1c(F)ccc2cc(O)cc(-c3ncc4c(N5C[C@@H]6CC[C@](C7CC7)(C5)N6)nc(OC[C@@]56CCCN5C/C(=C\F)C6)nc4c3F)c12 [Example 68, 4-(4-(1-cyclopropyl-3,8-diazabicyclo[3.2.1]octan-3-yl)-8-fluoro-2-(((S,Z)-2-(fluoromethylene)tetrahydro-1H-pyrrolizin-7a (5H)-yl)methoxy)pyrido[4,3-d]pyrimidin-7-yl)-5-ethynyl-6-fluoronaphthalen-2-ol] | 40.1 | 83.2 | 59.8 |  |  | 813 | 887 | 6.3 | 1070 | 300 | 26.4 | 5.6 | 33.4 | 190 |
| [2H]C([2H])([2H])C([2H])([2H])[C@@]12CC[C@@H](CN(c3nc(OC[C@@]45CCCN4CC(=C(F)F)C5)nc4c(F)c(-c5cc(O)cc6ccc(F)c(C#C)c56)ncc34)C1)N2 [Example 47, 4-(2-(((S)-2-(difluoromethylene)tetrahydro-1H-pyrrolizin-7a (5H)-yl)methoxy)-4-((1R,5S)-1-(ethyl-d5)-3,8-diazabicyclo [3.2.1]octan-3-yl)-8-fluoropyrido [4,3-d]pyrimidin-7-yl)-5-ethynyl-6-fluoronaphthalen-2-ol] | 14.6 | 23.1 | 23.9 |  |  |  |  |  |  |  |  |  | 4.8 | 46.3 |
| C#Cc1c(F)ccc2cc(O)cc(-c3ncc4c(N5C[C@@H]6CC[C@](CC)(C5)N6)nc(OC[C@@]56CCCN5C[C@H](F)C6)nc4c3F)c12 [Positive Compound 2, reference compound] |  | 33 | 59.4 |  |  |  |  |  |  |  |  |  | 9.2 | 83.3 |
| [2H]C([2H])([2H])OC[C@@]12CC[C@@H](CN(c3nc(OC[C@@]45CCCN4C/C(=C\F)C5)nc4c(F)c(-c5cccc6sc(N)c(C#N)c56)c(Cl)cc34)C1)N2 [Example 363, 2-amino-4-(6-chloro-8-fluoro-2-(((S,Z)-2-(fluoromethylene)tetra-hydro-1H-pyrrolizin-7a(5H)-yl)methoxy)-4-((1R,5S)-1-((methoxy-d3)methyl)-3,8-diaza-bicyclo[3.2.1]octan-3-yl)quina-zolin-7-yl)benzo[b]thiophene-3-carbonitrile] | 18.6 | 66.3 | 82.3 |  |  |  |  |  |  |  |  |  |  |  |
| C#Cc1c(F)ccc2cc(O)cc(-c3ncc4c(N5C[C@@H]6CC[C@](CC)(C5)N6)nc(OC[C@@]56CCCN5C/C(=C\F)C6)nc4c3F)c12 [Example 56, 4-(4-((1R,5S)-1-ethyl-3,8-diazabicyclo[3.2.1]octan-3-yl)-8-fluoro-2-(((S,Z)-2-(fluoromethylene)tetrahydro-1H-pyrrolizin-7a (5H)-yl)methoxy)pyrido[4,3-d]pyrimidin-7-yl)-5-ethynyl-6-fluoronaphthalen-2-ol] |  | 2.5 | 2.6 | 9.1 | 0.6 |  |  |  |  |  |  |  |  |  |
